Experimental data reported in patent US8361997B2, “Process for preparing a crystalline form of halobetasol propionate” (Taro Pharmaceutical North America, Inc., priority 2005, dated 2013).

Experiments:
[1] = cited from earlier work
[2] = Stability of HPLC sample and standard solutions in diluent; assay type: physicochemical; conditions: approx. 20 mg in 100 mL diluent (45:55 v/v water and acetonitrile); room temperature for 2 days protected from sunlight
Method: (§1) Approximately 20 mg of the crystalline halobetasol propionate sample to be assayed, accurately weighed, was transferred into a 100-mL volumetric flask, and the flask was filled to volume with diluent. The solution was sonicated to ensure complete dissolution. The sample solution was stable at room temperature for 2 days protected from sunlight.
as §1, with “of a” for “of the”, “propionate standard,” for “propionate sample to be assayed,”, “The standard” for “The sample”

stability of the solution [2]: stable
Compound: CCC(=O)O[C@]1(C(=O)CCl)[C@@H](C)C[C@H]2[C@@H]3C[C@H](F)C4=CC(=O)C=C[C@]4(C)[C@@]3(F)[C@@H](O)C[C@@]21C [Halobetasol propionate, (6α,11β,16β)-21-chloro-6,9-difluoro-11-hydroxy-16-methyl-17-(1-oxopropoxy)pregna-1,4-diene-3,20-dione]
solubility in organic solvents ([1]; organic solvents): soluble | solubility in water ([1]; water): insoluble
